Test results taken from PubChem BioAssay (NCI).
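Following 48 hours of exposure in 96-well plates, responses at five concentrations were used to interpolate endpoints linearly. The concentration for full growth arrest is given as TGI.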

Key:
Test in all cases: NCI-60 cell line screen, 48 h
[1] = test system: SF-539 CNS
[2] = test system: OVCAR-4 ovarian
[3] = test system: SK-OV-3 ovarian
[4] = test system: SF-295 CNS
[5] = test system: SR leukemia
[6] = test system: IGROV1 ovarian
[7] = test system: HOP-92 NSCLC
[8] = test system: SNB-75 CNS
[9] = test system: HL-60(TB) leukemia
[10] = test system: TK-10 renal
[11] = test system: NCI-H23 lung
[12] = test system: SK-MEL-5 melanoma
[13] = test system: OVCAR-8 ovarian
[14] = test system: MOLT-4 leukemia
[15] = test system: SK-MEL-2 melanoma
[16] = test system: A498 renal
[17] = test system: HCC-2998 colon
[18] = test system: SF-268 CNS
[19] = test system: UACC-257 melanoma
[20] = test system: NCI/ADR-RES ovarian
[21] = test system: DU-145 prostate
[22] = test system: PC-3 prostate
[23] = test system: 786-0 renal
[24] = test system: MDA-MB-231 breast
[25] = test system: SK-MEL-28 melanoma
[26] = test system: RPMI-8226 leukemia
[27] = test system: KM12 colon
[28] = test system: MCF7 breast
[29] = test system: CCRF-CEM leukemia
[30] = test system: SNB-19 CNS
[31] = test system: SW-620 colon
[32] = test system: UACC-62 melanoma
[33] = test system: COLO 205 colon
[34] = test system: EKVX NSCLC
[35] = test system: M14 melanoma
[36] = test system: T-47D breast
[37] = test system: HCT-116 colon
[38] = test system: HS 578T breast
[39] = test system: NCI-H460 lung
[40] = test system: MDA-MB-435
[41] = test system: UO-31 renal
[42] = test system: RXF 393 renal
[43] = test system: CAKI-1 renal
[44] = test system: HT29 colon
[45] = test system: HCT-15 colon
[46] = test system: HOP-62 NSCLC
[47] = test system: LOX IMVI melanoma
[48] = test system: ACHN renal
[49] = test system: BT-549 breast
[50] = test system: K-562 leukemia
[51] = test system: NCI-H226 lung
[52] = test system: U251 CNS

CCOC(=O)c1nc2ccc(C(F)(F)F)cc2nc1Oc1ccc(C(=O)OC)cc1
TGI [1]: > 100 µM
TGI [2]: > 100 µM
TGI [3]: > 100 µM
TGI [4]: > 100 µM
TGI [5]: > 100 µM
TGI [6]: > 100 µM
TGI [7]: > 100 µM
TGI [8]: > 100 µM
TGI [9]: > 100 µM
TGI [10]: > 100 µM
TGI [11]: > 100 µM
TGI [12]: > 100 µM
TGI [13]: > 100 µM
TGI [14]: > 100 µM
TGI [15]: > 100 µM
TGI [16]: > 100 µM
TGI [17]: > 100 µM
TGI [18]: > 100 µM
TGI [19]: > 100 µM
TGI [20]: > 100 µM
TGI [21]: > 100 µM
TGI [22]: > 100 µM
TGI [23]: > 100 µM
TGI [24]: > 100 µM
TGI [25]: > 100 µM
TGI [26]: > 100 µM
TGI [27]: > 100 µM
TGI [28]: > 100 µM
TGI [29]: > 100 µM
TGI [30]: > 100 µM
TGI [31]: > 100 µM
TGI [32]: > 100 µM
TGI [33]: > 100 µM
TGI [34]: > 100 µM
TGI [35]: > 100 µM
TGI [36]: > 100 µM
TGI [37]: > 100 µM
TGI [38]: > 100 µM
TGI [39]: > 100 µM
TGI [40]: > 100 µM
TGI [41]: > 100 µM
TGI [42]: > 100 µM
TGI [43]: > 100 µM
TGI [44]: > 100 µM
TGI [45]: > 100 µM
TGI [46]: 74.8 µM
TGI [47]: > 100 µM
TGI [48]: > 100 µM
TGI [49]: > 100 µM
TGI [50]: > 100 µM
TGI [51]: > 100 µM
TGI [52]: > 100 µM
